The subject of assay [1] is S. aureus. Put plainly: Peritonitis model, peptide injected intraperitoneally after S. aureus. It counts as in vivo, C57/B16 mice. The following applies: 72 hour time point, peptide 1 mg intraperitoneally; for survival: S. aureus 6×10^7 CFU. On the procedure: Bacterial preparation: Staphylococcus aureus a clinical isolate was grown in tryptic soy broth for 18 hours at 37° C. An aliquot was placed in fresh media and grown until mid-log phase of growth. S. aureus was centrifuged and washed in sterile PBS and diluted. Bacteria concentration of O.D.540 of 0.9, corresponding to a concentration of 6×10^7 CFU/ml was used for inoculation.
Peptide preparation: Murine MMP-12 C-terminal peptide […] (SEQ ID NO:37; 333-352) and Human MMP-12 C-terminal peptide […] (SEQ ID NO:36; 341-359) and a human MMP-12 peptide with a single nucleotide polymorphism: […] (SEQ ID NO:55) were solubilized in sterile H2O at a concentration of 4 mg/ml.
Peritonitis model: C57/B16 mice received intraperitoneal injection of bacteria in a total volume of 1 ml (6×10^7 CFU). Peptides were intraperitoneally injected immediately after at a dose of 1 mg. […] The control mice received the same intraperitoneal injection of bacteria as in the test groups and then received an injection of vehicle with no peptide.

The subject of the next assay is S aureus. Put plainly: Dose response of S. aureus to MMP-12 C-terminal peptides. Type of assay: cell-based, Staphylococcus aureus. The following applies: various concentrations of peptide, 100 minutes. On the procedure: Dose response: samples of S aureus were incubated with various concentrations of murine peptide (SEQ ID NO: 37), human peptide (SEQ ID NO: 36) and Human SNP peptide (SEQ ID NO:55). The human SNP peptide (SEQ ID NO:55) has a single nucleotide change from the sequence of SEQ ID NO 36. The peptide SEQ ID NO:36 has the amino acid sequence: […] and the peptide SEQ ID NO:55 has the amino acid sequence […]. The amount of bacteria remaining at various the various concentrations was determined for each group of a 100 minute time course.

The test system of assay [2] is S. aureus. Nature of the assay: In vitro antimicrobial activity, co-incubation with S. aureus in 5% LB and CFU count. Type of assay: cell-based, Staphylococcus aureus. Particulars: S. aureus, 5% LB culture, similar doses and conditions as full-length MMP-12. On the procedure: S. aureus co-culture was incubated for 60 minutes with doses of MMP-12 C-terminal. Aliquots of cultures were diluted in PBS at 1:10 and 1:100 dilution. Dilutions were plated on LB agar plates for 18 hour incubation at 37° C. Controls consisted of column fractions that lacked MMP-12 carboxy terminal determined by immunoblotting.
MMP-12's mechanism of action as a host defense protein was investigated. To test for direct activity, functional full-length recombinant human MMP-12 was incubated with S. aureus in a 5% LB culture. […] MMP-12 enzymatic activity was not required for this antimicrobial effect.
Mid-log phase bacteria (10^5) were incubated in the absence or presence of purified MMP-12 C-terminal in a total volume of 100 μl of 10 mmol/L sodium phosphate containing 5% (vol/vol) TSB at 37° C. for 1 hour. Serial dilutions were then spread on agarose plates and the number of CFUs were determined after overnight incubation.

Assay [3] deals with S. aureus. Put plainly: Propidium iodide exclusion assay with fluorescence microscopy. Type of assay: cell-based, Staphylococcus aureus. The following applies: 20 μg/ml, 30 minutes. On the procedure:
Recombinant segments of MMP-12 C-terminal were generated each covering one third of the C-terminal. Segments were then tested for anti-microbial activity against S. aureus. […] We hypothesized that in this region there was a secondary structure that had potential antimicrobial structure and properties consistent with the structure in cathelicidins. A predicted amphipathic and alpha helical structure was found in this region, which was conserved in the MMP-12 C-terminal domains from rabbit, rat, mouse and human. […] These studies have been repeated n>10 with similar results. FIG. 10 illustrates thae effect of MMP-12 C-terminal domain on cell survival.

Take “ARNQVFLFKDDKYWLISNLR (listed as Homo sapiens) [Human MMP-12 peptide]”: in the assay with S. aureus [1], the “activity (clinical observation)” value is “normal activity” and the survival worked out at 100%. The “amount of S. aureus remaining” value with S aureus is listed as “zero S. aureus at most concentrations”.
As to “ARNQVFLFKDDKYWLISSLR (listed as Homo sapiens) [Human SNP]”, the “amount of S. aureus remaining” value with S aureus is “zero S aureus at all concentrations”.
As to “MMP-3: commercially available full length pro-MMP 3 [reference compound]”, the direct antimicrobial activity entry in the assay on S. aureus [2] is given as “did not demonstrate this direct antimicrobial activity”.
With “MMP-7: commercially available full length pro-MMP 7 [reference compound]”, the direct antimicrobial activity entry in the assay with S. aureus [2] was “did not demonstrate this direct antimicrobial activity”.
On to “MMP-8: commercially available full length pro-MMP 8 [reference compound]”, for which the direct antimicrobial activity result with S. aureus [2] was “did not demonstrate this direct antimicrobial activity”.
For the substance “SRDLMFIFRGRKFWALNGYD [MMP-13 peptide, reference compound]”, the “bacterial death, uptake of membrane impermeant dye” value in the assay with S. aureus [3] was “little dye uptake”.
As to “SRNQLFLFKDEKYWLINNLV (listed as Mus musculus) [Murine MMP-12 peptide]”, the “bacterial death, uptake of membrane impermeant dye” value in the assay on S. aureus [3] was “clumping and increased uptake of membrane impermeant dye”. Besides, in the assay with S. aureus [1], the “activity (clinical observation)” value is given as “decrease activity” and the survival is recorded as 75%. For the same substance, the “amount of S. aureus remaining” value in the assay with S aureus is recorded as “higher at each concentration”.

Source of the values: patent publication US20030235577A1, “Methods and compositions for preventing and treating microbial infections” (priority 2002, published 2003).
